Data published in patent US4699914A, “Imidazole group containing 2(1H)-pyridones and method for treating heart insufficiencies in humans” (A. Nattermann & Cie GmbH, priority 1984, dated 1987).

Legend:
[1] = system: Anaesthetized dog; test: Evaluation of the cardiotonic activity in vivo, anaesthetized dog; design: species or system dog (adult mongrel dogs of either sex); Blood Pressure: unit not given here; conditions: intravenous
Procedure: The effects of increasing doses of the drugs were measured upon intravenous administration to anaesthetized dogs. As parameters myocardial contractility, heart rate and arterial blood pressure were registered.
Adult mongrel dogs of either sex received a premedication of morphinhydrochloride (1.0 mg/kg s.c.). Thirty minutes later anaesthesia was induced by chloralose/urethane. The animals were heparinised with 500 I.U. heparin/kg (i.v.) as an initial dosage followed by doses of 250 I.U./kg given every 4 hours.
The trachea was intubated but the animals were allowed to breathe spontaneously. The test solutions were injected via a cannula in the vena cephalica antebrachii dextra. Arterial blood pressure was measured by a cannula in the femoral artery. In order to enable the registration of the myocardial contractility a Millar catheter tip pressure transducer was inserted into the left ventricle by way of the left carotid artery. Arterial blood pressure and left ventricular blood pressure were recorded continuously. Heart rate is triggered from the peak of the blood pressure signal.
From the left ventricular blood pressure the first derivative was calculated by a differentiator amplifier to give left ventricular dp/dt which was recorded as well. The compounds were solved in tetrahydrofurfurylalcohol polyethylene glycolether when necessary with additional heating.
Each dose of the test compounds was administered in a volume of 0.1 ml/kg, the duration of the injection was 1 minute.
The results with the tested compound representing the subject of invention 3,6-Dimethyl-5-[4-(1-imidazolyl)-2-thienyl]-2(1H)-pyridone-hydrochloride=Ain comparison with reference substance 4,5-Dihydro-6-[4-(1-imidazolyl)-phenyl]-3(2H)-pyridazinone ((CI 914, Drugs of the Future 9 (1984), 256)=B are given in the table 1.

[2] = system: human platelets; test: Inhibition of the collagen-induced platelets aggregation in vitro (method of Born); assay type: cell-based; conditions: read-out: IC50 (concentration which causes an aggregation inhibition of 50%), platelet rich human plasma
Procedure: The inhibition of the collagen-induced platelets aggregation in vitro was carried out by using the method of Born (Nature, 194, 927-929 (1962)) in using a platelet rich human plasma with the substances of the present invention 3,6-dimethyl-5-[-5-(1-imidazolyl)-2-thienyl]-2(1H)-pyridone-hydrochloride=C, 3,6-dimethyl-5-[4-(1-imidazolyl)phenyl]-2(1H)-pyridone-hydrochloride=D, 5-[4-(1-imidazolyl)-2-thienyl]-6-methyl-2(1H)-pyridone-hydrochloride=E in comparison with the reference substance acetylsalicyclic acid=F.

[3] = Water solubility; assay type: physicochemical; conditions: hydrochloride, in words

Row | IC50 [2] | Compound | Blood Pressure ([1]; 0.01 mg/kg) | Contractility ([1]; 0.01 mg/kg) | Heart Rate ([1]; 0.01 mg/kg) | Blood Pressure ([1]; 0.0316 mg/kg) | Contractility ([1]; 0.0316 mg/kg) | Heart Rate ([1]; 0.0316 mg/kg) | Blood Pressure ([1]; 0.1 mg/kg) | Contractility ([1]; 0.1 mg/kg) | Heart Rate ([1]; 0.1 mg/kg) | also measured
1 |  | Cc1[nH]c(=O)c(C)cc1-c1cc(-n2ccnc2)cs1.Cl [A, 3,6-Dimethyl-5-[4-(1-imidazolyl)-2-thienyl]-2(1H)-pyridone-hydrochloride] | -0.2 | +32.4 | +5.9 | -4.1 | +83.3 | +20.0 | -17.4 | +185.5 | +32.1 | 
2 |  | O=C1CCC(c2ccc(-n3ccnc3)cc2)=NN1 [B, 4,5-Dihydro-6-[4-(1-imidazolyl)-phenyl]-3(2H)-pyridazinone, reference compound] | -1.3 | +8.7 | +3.6 | -0.7 | +25.5 | +18.9 | -10.4 | +64.8 | +15.4 | 
3 | 440 nM | Cc1[nH]c(=O)c(C)cc1-c1ccc(-n2ccnc2)s1 [C] |  |  |  |  |  |  |  |  |  | 
4 | 370 nM | Cc1[nH]c(=O)c(C)cc1-c1ccc(-n2ccnc2)cc1 [D] |  |  |  |  |  |  |  |  |  | 
5 | 540 nM | Cc1[nH]c(=O)ccc1-c1cc(-n2ccnc2)cs1 [E] |  |  |  |  |  |  |  |  |  | 
6 |  | CC1=C(c2ccc(-n3ccnc3)cc2)CCC(=O)N1.Cl [Example 22, 3,4-dihydro-5-[4-(1-imidazolyl)-phenyl]-6-methyl-2(1H)-pyridone-hydrochloride] |  |  |  |  |  |  |  |  |  | water solubility [3]: water soluble
